Data on 13 molecules can be found in ChEMBL document CHEMBL4017541, “Membrane-Active Hydantoin Derivatives as Antibiotic Agents” (J Med Chem, 2017).

The subject of test [1] is Staphylococcus epidermidis. Briefly: Antimicrobial activity against methicillin resistant Staphylococcus epidermidis RP62A after 16 hrs. The test is classed as functional.
Test [2] relates to Staphylococcus aureus. As to the kind of experiment: Antimicrobial activity against methicillin resistant Staphylococcus aureus ATCC 33591 after 16 hrs. In kind it is functional. The settings on record: ATCC 33591, 16 h.
Another test has as its system Escherichia coli. Briefly: Antimicrobial activity against Escherichia coli ATCC 25922 after 16 hrs. In kind it is functional. The settings on record: ATCC 25922, 16 h.
The subject of a further test is Klebsiella pneumoniae. As to the kind of experiment: Antimicrobial activity against Klebsiella pneumoniae ATCC 13383 after 16 hrs. The settings on record: ATCC 13383, 16 h. In kind it is functional.
A short description of test [3]: Retention time of compound by HPLC analysis.
The next test concerns Enterococcus faecalis. Briefly: Antimicrobial activity against vancomycin resistant Enterococcus faecalis ATCC 700802 after 16 hrs. The test is classed as functional. The settings on record: ATCC 700802, 16 h.
The next test relates to Pseudomonas aeruginosa. Briefly: Antimicrobial activity against Pseudomonas aeruginosa ATCC 27853 after 16 hrs. The test is classed as functional. The settings on record: ATCC 27853, 16 h.
Test [4] in a line: Selectivity index, ratio of HC50 for mouse RBC to MIC for methicillin resistance Staphylococcus aureus ATCC 33591.
The test system of test [5] is Staphylococcus aureus. Briefly: Antibacterial activity against methicillin resistance Staphylococcus aureus ATCC 33591 infected in Wistar rat assessed as reduction in bacterial load in bronchoalveolar lavage of lungs at 10 mg/kg, iv treated 24 hrs post infection measured after 5 days relative to control. Also noted: scale not given: the % may be the effect or the level left. The test is classed as functional.

The subject of test [6] is Staphylococcus aureus. As to the kind of experiment: Antibacterial activity against methicillin resistant Staphylococcus aureus ATCC 33591 infected in Wistar rat assessed as reduction in lung inflammation at 10 mg/kg, iv treated 24 hrs post infection measured after 3 days by hematoxylin/ eosin staining based microscopic analysis. In kind it is functional, organism-based.

In test [7] the test system is Staphylococcus aureus. As to the kind of experiment: Antibacterial activity against methicillin resistant Staphylococcus aureus ATCC 33591 infected in Wistar rat assessed as reduction in lung inflammation at 10 mg/kg, iv treated 24 hrs post infection measured after 5 days by hematoxylin/ eosin staining based microscopic analysis. In kind it is functional, organism-based.

Test [8] concerns Staphylococcus aureus. Briefly: Antibacterial activity against methicillin resistance Staphylococcus aureus ATCC 33591 infected in Wistar rat assessed as reduction in bacterial load in bronchoalveolar lavage of lungs at 10 mg/kg, iv treated 24 hrs post infection measured after 3 days relative to control. Also noted: scale not given: the % may be the effect or the level left. The test is classed as functional.

Values after ≈ are worked out from the molar mass of the structure shown. Active and inactive are the calls of the source. The calls are words filed in the database; no cut-off is given here. Bounds are passed on as bounds.

As usually defined, the MIC is the lowest concentration found to suppress growth. In the case of `CCCCCCCCCCCC(=O)N[C@@H](Cc1ccccc1)CN1CC(=O)N(c2cccc(Cl)c2)C1=O`, the minimum inhibitory concentration (MIC) (in test [1]; against Staphylococcus aureus [2]; against Escherichia coli; in the test with Klebsiella pneumoniae; in the test with Enterococcus faecalis; with Pseudomonas aeruginosa) was more than 50 µg/mL throughout. Further, in test [3], the Retention time was less than 26 min.

As to `CCCCCCCCCCCCCC(=O)N[C@@H](CCCCN)CN1CC(=O)N(C23CC4CC(CC(C4)C2)C3)C1=O`, the minimal inhibitory concentration (MIC) in test [1] is 3.15 µg/mL (≈ 5.64 µM); in the test with Escherichia coli, more than 50 µg/mL; against Klebsiella pneumoniae, more than 50 µg/mL; against Enterococcus faecalis it was 6.25 µg/mL (≈ 11.2 µM); in the test on Pseudomonas aeruginosa, more than 50 µg/mL.

For the molecule `CCCCCCCCCCCCCC(=O)N[C@@H](CCCCN)CN1CC(=O)N(C2CCCCC2)C1=O`, the minimal inhibitory concentration (MIC) in test [1] was 6.25 µg/mL (≈ 12.3 µM); against Staphylococcus aureus [2], 3.12 µg/mL (≈ 6.16 µM); in the test on Escherichia coli it was 12.5 µg/mL (≈ 24.7 µM); against Klebsiella pneumoniae, 6.25 µg/mL (≈ 12.3 µM); in the test with Enterococcus faecalis, 6.25 µg/mL (≈ 12.3 µM); in the test on Pseudomonas aeruginosa it was more than 50 µg/mL.

As to `CCCCCCCCCCCCCCCC(=O)N[C@@H](CCCCN)CN1CC(=O)N(CC)C1=O`, the minimal inhibitory concentration (MIC) in test [1] was 3.12 µg/mL (≈ 6.49 µM); against Staphylococcus aureus [2] it was 3.12 µg/mL (≈ 6.49 µM); in the test on Escherichia coli, 3.12 µg/mL (≈ 6.49 µM); against Klebsiella pneumoniae, 12.5 µg/mL (≈ 26 µM); with Enterococcus faecalis it was 3.12 µg/mL (≈ 6.49 µM); against Pseudomonas aeruginosa it was more than 50 µg/mL. Besides, in test [3], the Retention time was less than 26 min.

Regarding `CCCCCCCCCCCCCC(=O)N[C@@H](CCCCN)CN1CC(=O)N(CCCC)C1=O`, the MIC is 6.25 µg/mL (≈ 13 µM) in [1]; 6.25 µg/mL (≈ 13 µM) in the test on Staphylococcus aureus [2]; 6.25 µg/mL (≈ 13 µM) with Escherichia coli; 12.5 µg/mL (≈ 26 µM) with Klebsiella pneumoniae; 6.25 µg/mL (≈ 13 µM) against Enterococcus faecalis; more than 50 µg/mL against Pseudomonas aeruginosa.

As to `CCCCCCCCCCCC(=O)N[C@@H](CCCCN)CN1CC(=O)N(c2ccc(OC)cc2)C1=O`, the MIC in test [1] came out at 25 µg/mL (≈ 49.7 µM); against Staphylococcus aureus [2] it was 25 µg/mL (≈ 49.7 µM); with Escherichia coli, 12.5 µg/mL (≈ 24.9 µM); in the test with Klebsiella pneumoniae, 12.5 µg/mL (≈ 24.9 µM); in the test with Enterococcus faecalis, 25 µg/mL (≈ 49.7 µM); against Pseudomonas aeruginosa it was 12.5 µg/mL (≈ 24.9 µM). Also, the Selectivity Index in test [4] stood at 8. This molecule also returned a Retention time in test [3] of less than 26 min.

As to `CCCCCCCCCC(=O)N[C@@H](CCCCN)CN1CC(=O)N(C23CC4CC(CC(C4)C2)C3)C1=O`, the minimum inhibitory concentration (MIC) was 6.25 µg/mL (≈ 12.4 µM) in test [1]; 6.25 µg/mL (≈ 12.4 µM) in the test with Staphylococcus aureus [2]; 6.25 µg/mL (≈ 12.4 µM) in the test on Escherichia coli; 6.25 µg/mL (≈ 12.4 µM) in the test with Klebsiella pneumoniae; 12.5 µg/mL (≈ 24.9 µM) against Enterococcus faecalis; 12.5 µg/mL (≈ 24.9 µM) against Pseudomonas aeruginosa. Moreover, the Selectivity Index in test [4] came to 20.

As to `O=C1CN(/N=C/c2ccc([N+](=O)[O-])o2)C(=O)N1` [NITROFURANTOIN], the MIC in test [1] was 6.25 µg/mL (≈ 26.2 µM); in the test with Staphylococcus aureus [2], 12.5 µg/mL (≈ 52.5 µM); against Escherichia coli it was 6.25 µg/mL (≈ 26.2 µM); against Klebsiella pneumoniae, 25 µg/mL (≈ 105 µM); against Enterococcus faecalis, 12.5 µg/mL (≈ 52.5 µM); with Pseudomonas aeruginosa, more than 50 µg/mL.

As for `CCCCCCCCCCCC(=O)N[C@@H](CCCCN)CN1CC(=O)N(C23CC4CC(CC(C4)C2)C3)C1=O`, the MIC in test [1] was 6.25 µg/mL (≈ 11.8 µM); against Staphylococcus aureus [2], 6.25 µg/mL (≈ 11.8 µM); in the test with Escherichia coli, 12.5 µg/mL (≈ 23.5 µM); against Klebsiella pneumoniae, more than 50 µg/mL; against Enterococcus faecalis, 6.25 µg/mL (≈ 11.8 µM); against Pseudomonas aeruginosa, more than 50 µg/mL.

For `CCCCCCCCCC(=O)N[C@@H](CCCCN)CN1CC(=O)N(CC)C1=O`, the minimal inhibitory concentration (MIC) (in [1]; against Staphylococcus aureus [2]; in the test on Escherichia coli; with Klebsiella pneumoniae; against Enterococcus faecalis; against Pseudomonas aeruginosa) was more than 50 µg/mL throughout. In addition, the Retention time in test [3] is less than 26 min.

Consider `CCCCCCCCCCCCCCCC(=O)N[C@@H](CCCCN)CN1CC(=O)N(CCCC)C1=O`, for which the MIC in test [1] was 6.25 µg/mL (≈ 12.3 µM); against Staphylococcus aureus [2] it was 6.25 µg/mL (≈ 12.3 µM); with Escherichia coli, more than 50 µg/mL; with Klebsiella pneumoniae it was more than 50 µg/mL; in the test on Enterococcus faecalis, 6.25 µg/mL (≈ 12.3 µM); against Pseudomonas aeruginosa, more than 50 µg/mL.

In the case of `CCCCCCCCCCCC(=O)N[C@@H](CCCCN)CN1CC(=O)N(CCCC)C1=O`, the minimal inhibitory concentration (MIC) in [1] worked out at 25 µg/mL (≈ 55.2 µM); in the test with Staphylococcus aureus [2], 12.5 µg/mL (≈ 27.6 µM); in the test with Escherichia coli it was 6.25 µg/mL (≈ 13.8 µM); against Klebsiella pneumoniae, 12.5 µg/mL (≈ 27.6 µM); in the test on Enterococcus faecalis, 25 µg/mL (≈ 55.2 µM); in the test on Pseudomonas aeruginosa, 25 µg/mL (≈ 55.2 µM). In [4], the Selectivity Index was 6.4. Further, the Retention time in test [3] is less than 26 min.

`CN[C@H](CC(C)C)C(=O)N[C@H]1C(=O)N[C@@H](CC(N)=O)C(=O)N[C@H]2C(=O)N[C@H]3C(=O)N[C@H](C(=O)N[C@H](C(=O)O)c4cc(O)cc(O)c4-c4cc3ccc4O)[C@H](O)c3ccc(c(Cl)c3)Oc3cc2cc(c3O[C@@H]2O[C@H](CO)[C@@H](O)[C@H](O)[C@H]2O[C@H]2C[C@](C)(N)[C@H](O)[C@H](C)O2)Oc2ccc(cc2Cl)[C@H]1O` [VANCOMYCIN]: the figures for the Activity in the test on Staphylococcus aureus [5] and with Staphylococcus aureus [8] were 45% and 30%, respectively. In addition, the outcome in the test on Staphylococcus aureus [6] and in the test on Staphylococcus aureus [7] was Active.
